From patent US10543178B2, “Dosage forms and related therapies” (PhilERA New Zealand Limited, priority 2002, dated 2020) come the findings set out here.

Entries after “also recorded” stand apart in the source; their conditions may differ.

For data set [1], the system named is STZ diabetic rats. Put plainly: Isolated working heart: cardiac function after 7 weeks oral trientine in drinking water. As to conditions: for Heart weight / Left Ventricular wall thickness / Left Ventricular wall thickness per BW / Heart weight (g)/BW (g): trientine weeks 7-13.
Data set [2] relates to STZ diabetic rats. Particulars: LCM and TEM. The text has this: Methods were as follows. Following functional analysis, LV histology was studied by laser confocal (LCM; FIG. 29a-d) and transmission electron microscopy (TEM; FIG. 29e-h). For LCM, LV sections were co-stained with phalloidin to visualize actin filaments, and β1-integrin as a marker for the extracellular space. Ding B, et al., “Left ventricular hypertrophy in ascending aortic stenosis in mice: anoikis and the progression to early failure,” Circulation 101:2854-2862 (2000).
For each treatment, 5 sections from each of 3 hearts were examined by both LCM and TEM. For LCM, LV sections were fixed (4% paraformaldehyde, 24 h); embedded (6% agar); vibratomed (120 pm, Campden); stained for f-actin (Phalloidin-488, Molecular Probes) and β1-integrin antibody with a secondary antibody of goat anti-rabbit conjugated to CY5 (1:200; Ding B, et al., “Left ventricular hypertrophy in ascending aortic stenosis in mice: anoikis and the progression to early failure,” Circulation 101:2854-2862 (2000)); and visualised (TCS-SP2, Leica). For TEM, specimens were post-fixed (1:1 v/v 1% w/v 0s0 M 0s0 M PBS); stained (aqueous uranyl acetate (2% w/v, 20 mm) then lead citrate (3 mm)); sectioned (70 nm); and visualized (CM-12, Phillips).

Another data set relates to diabetic Wistar rats. Particulars: six months of treatment.
On data set [3], the source says: Methods were as follows. Human studies were approved by institutional ethics and regulatory committees. We measured urinary metal excretion in human males with T2DM or matched non-diabetic controls, baseline information on which is shown in Table 9, in a randomized, double blind, placebo-controlled trial. Males with uncomplicated T2DM (Table 9) underwent 12-d elemental balance studies in a fully residential metabolic unit. All foods and beverages were provided. Total daily intake (method of double diets) and excretion (urinary and fecal) of trace elements (Ca, Mg, Zn, Fe, Cu, Mn, Mo, Cr and Se) were determined (ICP MS).

`NCCNCCNCCN` [trientine, N,N′-Bis(2-aminoethyl)-1,2-ethanediamine]: the “Cardiac function versus untreated diabetic controls” value with STZ diabetic rats [1] (STZ diabetic rats, oral trientine 7 weeks) is “improved; also recorded: global improvement in cardiac function”. In addition, in the data set with STZ diabetic rats [1] (STZ/D7 diabetic rats), the Heart weight is 1.18 ± 0.24 g, the “Left Ventricular wall thickness” value is given as 3.79 ± 0.52 mm and the “Left Ventricular wall thickness per BW” value is 0.0127 ± 0.0027 mm/g. The “Heart weight (g)/BW (g)” value in the data set with STZ diabetic rats [1] (STZ/D7 diabetic rats, P < 0.05 vs STZ) was found to be 0.0041 ± 0.0005 g/g. Also, in the data set with STZ diabetic rats [1] (Sham/D7 non-diabetic rats), the Heart weight is reported as 1.58 ± 0.05 g, the “Heart weight (g)/BW (g)” value is recorded as 0.0028 ± 0.0001 g/g, the “Left Ventricular wall thickness” value came out at 4.03 ± 0.1 mm and the “Left Ventricular wall thickness per BW” value is on record as 0.0072 ± 0.0003 mm/g. In addition, the “Blood glucose profile versus untreated comparison group” value with STZ diabetic rats [1] (both treated groups, p = ns) is recorded as “no difference”. Also, the “Indicators for ventricular contraction and relaxation versus untreated diabetic group” value in the data set with STZ diabetic rats [1] (drug treated diabetic group) is “significantly improved”. In addition, the “Trientine treated diabetic hearts still functioning” value in the data set on STZ diabetic rats [1] (increasing after-load, constant pre-load, when 50% of the untreated diabetic hearts had failed) is reported as “about 90%”. In addition, the “Effects on cardiac performance of normal animals” value in the data set with STZ diabetic rats [1] (non-diabetic rats, drug treatment) is “no adverse effects”. Besides, in the data set on STZ diabetic rats [1] (pre-load increased, after-load held constant, treated diabetic rats), the Cardiac output entry is given as “restored to Sham values”. For the same compound, the “Myocardium from trientine-treated nondiabetics” value with STZ diabetic rats [2] is “appeared normal”. For the same compound, in the data set with diabetic Wistar rats, the “Protection of the heart from development of diabetic damage (cardiomyopathy), as judged by histology” value was “appears to protect”. For the same compound, the “Trientine-evoked urinary Fe excretion” value in data set [3] (T2DM and controls, oral 2.4 g) is “no corresponding increase”. Moreover, the “Urinary Cu versus placebo” value in data set [3] (both groups (T2DM and controls), day 7, oral 2.4 g) is “increased”. Moreover, the “Cu excretion from T2DM versus non-diabetic controls following trientine-treatment” value in data set [3] (day 7, 2.4-g oral dose, P<0.05) was “significantly greater”.
